Reference: US20030130290A1, “Fungicidal combinations comprising thieno[2,3-d]pyrimidin-4-one” (priority 1997, published 2003)

Tests used:
[1] = tested on: Helminthosporium gramineum; assay: Activity against Helminthosporium gramineum on barley (Example B-12), seed treatment; assay type: in vivo; conditions: Table 6
Source text: (§1) A synergistic effect exists whenever the action of an active ingredient combination is greater than the sum of the actions of the individual components.
(§2) The action to be expected E for a given active ingredient combination obeys the so-called COLBY formula and can be calculated as follows (COLBY, S. R. “Calculating synergistic and antagonistic responses of herbicide combination”. Weeds, Vol. 15, pages 20-22; 1967):
(§3) According to Colby, the expected (additive) action of active ingredients I+II using p+q ppm of active ingredient is [formula]
(§4) If the action actually observed (O) is greater than the expected action (E), then the action of the combination is superadditive, i.e. there is a synergistic effect. Alternatively the synergistic action may also be determined from the dose response curves according to the so-called WADLEY method. With this method the efficacy of the a.i. is determined by comparing the degree of fungal attack on treated plants with that on untreated, similarly inoculated and incubated check plants. Each a.i. is tested at 4 to 5 concentrations. The dose response curves are used to establish the EC90 (i.e. concentration of a.i. providing 90% disease control) of the single compounds as well as of the combinations (EC 90observed). The thus experimentally found values of the mixtures at a given weight ratio are compared with the values that would have been found were only a complementary efficacy of the components was present (EC 90 (A+B)expected). The EC90 (A+B)expected is calculated according to Wadley (Levi et al., EPPO- Bulletin 16, 1986, 651-657): [formula]
Barley seed which is infected with H.gramineum is harvested from the field. […] About 60 days after sowing, the number of existing plants and the number of infected plants are determined. Symptoms are expressed as typical stripe-shaped spots on the first leaf. The total infection rate is compared with the total infection rate in the comparison seed trays with untreated seeds and expressed as the total percentage infection rate.

[2] = tested on: Erysiphe graminis f.sp. tritici; assay: Efficacy against Erysiphe graminis f.sp. tritici on wheat (Example B-1), spray application; assay type: in vivo, Erysiphe graminis f.sp. tritici on wheat plants c.v. Arina
Source text: as §1, §2, §3, §4
Wheat plants c.v. “Arina”, about 10 days old, are sprayed with aqueous suspensions of the active ingredients or mixtures thereof. One day later, the plants are inoculated by dusting with spores of Erysiphe graminis. The tests may also be carried out with curative applications, i.e. application 1-3 days after artificial inoculation of the plants. The plants are incubated in the greenhouse or in climate chambers at 20° C., 70% relative humidity. 7 to 10 days after inoculation, fungal attack on primary leaves is assessed.
(§5) The efficacy of the test combinations and the single active ingredients in the above tests is determined by comparing the degree of fungal attack with that on untreated, similarly inoculated check plants.

[3] = tested on: Puccinia recondita; assay: Activity against Puccinia recondita in wheat (B-7), spray application; assay type: in vivo, Puccinia recondita on wheat plants c.v. Arina; conditions: Table 5
Source text: as §1, §2, §3, §4
Wheat plants c.v. “Arina”, about 10 days old, are sprayed with aqueous suspensions of the active ingredients or mixtures thereof. One day later, the plants are inoculated with a spore suspension of the fungus. The test may also be carried out with curative applications, i.e. application 1-3 days later after artificial inoculation of the plants. The plants are incubated in a growth chamber for 2 days at °20° C. and 95-100% relative humidity, then further 10 days at 20° C. and 70% relative humidity. Fungal attack on primary leaves is assessed.
as §5

For CC1(C)CC/C(=C\c2ccc(Cl)cc2)C1(O)Cn1cncn1 (stereo not drawn) [triticonazole], the “% activity observed” value ([1]; 20 g a.i./100 kg seed alone) was 12% and the “% activity observed” value ([1]; 40 g a.i./100 kg seed alone) was 22%.

CC(C1CC1)C(O)(Cn1cncn1)c1ccc(Cl)cc1 (stereo not drawn) [cyproconazole, reference compound] was tested, and the “% activity observed” value ([2]; Table 2, 1 ppm alone) was 8%, the “% activity observed” value ([2]; Table 2, 2.5 ppm alone) was 49% and the “% activity observed” value ([2]; Table 2, 5 ppm alone) was 100%. The “% activity observed” value ([2]; Table 2, 10 ppm alone) was 100%.

CCCOc1nc2sc(Cl)cc2c(=O)n1CCC [cmpd. I.01] was tested, and the “% activity observed” value ([1]; 20 g a.i./100 kg seed alone) was 11%, the “% activity observed” value ([2]; Table 1, 10 ppm alone) was 0% and the “% activity observed” value ([2]; Table 1, 25 ppm alone) was 0%. For the same compound, the “% activity observed” value ([2]; Table 1, 50 ppm alone) was 12%, the “% activity observed” value ([2]; Table 1, 100 ppm alone) was 26% and the “% activity observed” value ([2]; Table 1, 250 ppm alone) was 34%. For the same compound, the “% activity observed” value ([2]; Table 1, 500 ppm alone) was 66%, the “% activity observed” value ([2]; Table 2, 1 ppm alone) was 0% and the “% activity observed” value ([2]; Table 2, 2.5 ppm alone) was 0%. For the same compound, the “% activity observed” value ([2]; Table 2, 5 ppm alone) was 8%, the “% activity observed” value ([2]; Table 2, 10 ppm alone) was 8% and the “% activity observed” value ([2]; Table 2, o.5 ppm alone) was 0%. For the same compound, the “% activity observed” value ([2]; Table 3, 0.5 ppm alone) was 2%, the “% activity observed” value ([2]; Table 3, 1 ppm alone) was 0% and the “% activity observed” value ([2]; Table 3, 2.5 ppm alone) was 14%. The “% activity observed” value ([2]; Table 3, 5 ppm alone) was 8%, the “% activity observed” value ([2]; Table 3, 10 ppm alone) was 4% and the “% activity observed” value ([2]; Table 4, 0.25 ppm alone) was 0%. The “% activity observed” value ([2]; Table 4, 0.5 ppm alone) was 0%, the “% activity observed” value ([2]; Table 4, 1 ppm alone) was 0% and the “% activity observed” value ([2]; Table 4, 2.5 ppm alone) was 0%. For the same compound, the “% activity observed” value ([3]; 0.5 ppm alone) was 0%, the “% activity observed” value ([3]; 1 ppm alone) was 0% and the “% activity observed” value ([3]; 2.5 ppm alone) was 0%. For the same compound, the “% activity observed” value ([3]; 5 ppm alone) was 0%, the “% activity observed” value ([3]; 10 ppm alone) was 0% and the “% activity observed” value ([3]; 25 ppm alone) was 0%.

With CCCC1COC(Cn2cncn2)(c2ccc(Cl)cc2Cl)O1 (stereo not drawn) [propiconazole, reference compound] the “% activity observed” value ([2]; Table 3, 0.1 ppm alone) was 0%, the “% activity observed” value ([2]; Table 3, 0.25 ppm alone) was 0% and the “% activity observed” value ([2]; Table 3, 0.5 ppm alone) was 6%. For the same compound, the “% activity observed” value ([2]; Table 3, 1 ppm alone) was 8% and the “% activity observed” value ([2]; Table 3, 2.5 ppm alone) was 72%.

CC(Cc1ccc(C(C)(C)C)cc1)CN1CCCCC1 (stereo not drawn) [fenpropidine, reference compound] gave an inhibition at 2.5 ppm ([2]; Blumeria graminis, Table 4, 2.5 ppm alone, read-out: % activity observed) of 35%, an inhibition at 5 ppm ([2]; Blumeria graminis, Table 4, 5 ppm alone, read-out: % activity observed) of 51% and an inhibition at 10 ppm ([2]; Blumeria graminis, Table 4, 10 ppm alone, read-out: % activity observed) of 63%.

N#Cc1c[nH]cc1-c1cccc2c1OC(F)(F)O2 [Fludioxonil, fludioxonil, reference compound] was tested, and the “% activity observed” value ([2]; Table 1, 10 ppm alone) was 2%, the “% activity observed” value ([2]; Table 1, 25 ppm alone) was 0% and the “% activity observed” value ([2]; Table 1, 50 ppm alone) was 6%. For the same compound, the “% activity observed” value ([2]; Table 1, 100 ppm alone) was 14%, the “% activity observed” value ([2]; Table 1, 250 ppm alone) was 19% and the “% activity observed” value ([2]; Table 1, 500 ppm alone) was 27%.

In the case of CON=C(C(=O)OC)c1ccccc1CON=C(C)c1cccc(C(F)(F)F)c1 [cmpd. V, methyl 2-{2-[4-(3-trifluoromethylphenyl)-3-aza-2-oxa-3-pentenyl]-phenyl}-2-methoxyimino-acetate, reference compound], the inhibition at 1 ppm ([3]; Puccinia recondita, 1 ppm alone, read-out: % activity observed) is reported as 17%, the inhibition at 2.5 ppm ([3]; Puccinia recondita, 2.5 ppm alone, read-out: % activity observed) is reported as 32% and the inhibition at 5 ppm ([3]; Puccinia recondita, 5 ppm alone, read-out: % activity observed) is reported as 38%. The inhibition at 10 ppm ([3]; Puccinia recondita, 10 ppm alone, read-out: % activity observed) was 37%.
